Results on 15 compounds are retold here after patent US12486219B2, “Modified tetracyclines for treatment of alcohol use disorder, pain and other disorders involving potential inflammatory processes” (Texas Tech University System, priority 2018, dated 2025).

For data set [1], the system named is binge ethanol consumption. The experiment in a line: Binge ethanol consumption, minocycline derivatives (FIGS. 8C to 15C). The note with it: figure legend only, values not given. It counts as in vivo.
For data set [2], the system named is Drinking In the Dark (DID) murine model of binge drinking. Description: Drinking In the Dark (DID) murine model of binge drinking. The data set is classed as in vivo, mice. Particulars: 0, 25, 35, 50 and 100 mg/kg p.o. vs control; n=4/group; p=0.004; dose-dependent. Here is the method: Using a standard Drinking In the Dark (DID) murine model of binge drinking, we tested the effect of 0, 25, 35, 50 and 100 mg/kg per os (p.o.) acetylated minocycline (derivative Y, or CMM1) vs control.

Data set [3] concerns DBA/2J mice. The experiment in a line: Alcohol withdrawal, Handling Induced Convulsion scores. The data set is classed as in vivo. Here is the method:
Female and male DBA/2J mice were tested with CMM1, 100 mg/kg per p.o., at 2 hrs following 4 g/kg 20% ethanol in saline. Shown are the Handling Induced Convulsion scores, background subtracted and summed over 24 hours. […] Mean±SEM, n=5/group.

Data set [4] relates to E. coli. The experiment in a line: E. coli zone of inhibition (ZOI) and recovered colony forming units (CFU) per disk. The data set is classed as cell-based. Particulars: dose response. How it is done:
Minocycline and two acetylated derivatives, CMM1 (B) and CMM2 (Y), were tested in a dose response manner for A) zone of inhibition (ZOI) and B) recovered colony forming units (CFU) per disk.

Data set [5] concerns AUD traits. The note with it: seven tetracyclines tested; cited from earlier work.
The conditions of data set [6]: cited from earlier work.
Data set [7] concerns DID consumption. The experiment in a line: DID consumption after intracerebroventricular (ICV) drug. The note with it: 3 ul of drug (9 mg/ml) icv 20 hrs prior to DID testing; n=9-11; p<0.01. It counts as in vivo, mice. How it is done: To test the hypothesis that tigecycline works at the level of the CNS, rather than the PNS, 3 ul of drug (9 mg/ml) was given icy 20 hrs prior to DID testing. n=9-11, mean±SEM, **p<0.01.

Data set [8] concerns DID ethanol consumption. Description: DID ethanol consumption after "sterilization" of the GI microbiome. The data set is classed as in vivo, mice. The note with it: ten-day ampicillin, neomycin, metronidazole, vancomycin; tigecycline 100 mg/kg i.p.; n=7. How it is done: A ten-day “sterilization” treatment with ampicillin, neomycin, metronidozale and vancomycin was used. Bedding was changed daily to avoid repopulation. DID was started on day 11 after one day of no metronidazole. Tigecycline was given at 100 mg/kg intraperitoneal (i.p.) n=7, mean±SEM.

As to `CCCCOc1ccc(N(C)C)c2c1C(=O)C1=C(O)C3(O)C(=O)C(C(N)=O)=C(O)C(N(C)C)C3CC1C2` (stereo not shown) [Butyl Ether Minocycline, 10-Butoxy-4,7-bis-dimethylamino-3,12,12a-trihydroxy-1,11-dioxo-1,4,4a,5,5a,6,11,12a-octahydro-naphthacene-2-carboxylic acid amide], in data set [1], the binge ethanol consumption entry is “reduction of binge ethanol consumption”.

Regarding `CC(=O)NC(=O)c1c(OC(C)=O)c2c(c(N(C)C)c1OC(C)=O)CC1Cc3c(N(C)C)ccc(OC(C)=O)c3C(=O)C1=C2OC(C)=O` (stereo not shown) [CMM1], in data set [2], the “ethanol consumption (DID)” value is on record as “significantly reduced drinking”. The “alcohol withdrawal symptoms (Handling Induced Convulsion scores summed over 24 hours)” value in data set [3] (100 mg/kg p.o. at 2 hrs following 4 g/kg 20% ethanol, female and male DBA/2J mice, n=5/group) is recorded as “reduced alcohol withdrawal symptoms”. Moreover, in data set [3] (100 mg/kg p.o., DBA/2J mice), the “efficacy on withdrawal compared with minocycline” value was “more effective than the parent drug, minocycline” and the “efficacy on withdrawal, females vs males” value is recorded as “more effective in females”. In data set [4], the “antibiotic activity (ZOI and CFU per disk)” value is reported as “loss of antibiotic activity even at high doses”.

Consider `CC(=O)NC(=O)c1c(OC(C)=O)c2c(c(N(C)C)c1OC(C)=O)CC1Cc3c(N(C)C)ccc(OC(C)=O)c3C(=O)C1=C2O` (stereo not shown) [CMM2], for which the “antibiotic activity (ZOI and CFU per disk)” value in data set [4] is “loss of antibiotic activity even at high doses”.

For `CC(=O)NC(=O)c1c(O)cc2c(c1O)C(O)=C1C(=O)c3c(OC(C)=O)ccc(N(C)C)c3CC1C2` (stereo not shown) [De Methyl Diacetate Minocycline, Acetic acid 9-acetylcarbamoyl-4-dimethylamino-8,10,11-trihydroxy-12-oxo-5,5a,6,12-tetrahydro-naphthacen-1-yl ester], the binge ethanol consumption entry in data set [1] is recorded as “reduction of binge ethanol consumption”.

As to `C[C@H]1c2cccc(O)c2C(=O)C2=C(O)[C@]3(O)C(=O)C(C(N)=O)=C(O)[C@@H](N(C)C)[C@@H]3[C@@H](O)[C@@H]21` [Doxycycline], the “efficacy against AUD traits” value in data set [5] is listed as “effective”.

With `CCOc1ccc(N(C)C)c2c1C(=O)C1=C(O)C3(O)C(=O)C(C(N)=O)=C(O)C(N(C)C)C3CC1C2` (stereo not shown) [Ethyl Ether Minocycline, 4,7-Bis-dimethylamino-10-ethoxy-3,12,12a-trihydroxy-1,11-dioxo-1,4,4a,5,5a,6,11,12a-octahydro-naphthacene-2-carboxylic acid amide], the binge ethanol consumption result in data set [1] is reported as “reduction of binge ethanol consumption”.

Consider `COc1ccc(N(C)C)c2c1C(=O)C1=C(O)C3(O)C(=O)C(C(N)=O)=C(O)C(N(C)C)C3CC1C2` (stereo not shown) [Methyl Ether Minocycline, 4,7-Bis-dimethylamino-3,12,12a-trihydroxy-10-methoxy-1,11-dioxo-1,4,4a,5,5a,6,11,12a-octahydro-naphthacene-2-carboxylic acid amide], for which the binge ethanol consumption result in data set [1] was “reduction of binge ethanol consumption”.

On to `COc1ccc(N(C)C)c2c1C(=O)C1=C(O)c3c(O)c(C(=O)NC(C)=O)c(O)c(N(C)C)c3CC1C2` (stereo not shown) [Methyl Ether N-Monoacetate Minocycline, 4,7-Bis-dimethylamino-1,3,12-trihydroxy-10-methoxy-11-oxo-5,5a,6,11-tetrahydro-naphthacene-2-carboxylic acid acetyl-amide], for which the binge ethanol consumption result in data set [1] is reported as “reduction of binge ethanol consumption”.

Consider `COc1ccc(N(C)C)c2c1C(=O)C1=C(O)c3c(c(N(C)C)c(OC(C)=O)c(C(=O)NC(C)=O)c3OC(C)=O)CC1C2` (stereo not shown) [Methyl Ether Tri Acetate Minocycline, Acetic acid 4-acetoxy-3-acetylcarbamoyl-1,10-bis-dimethylamino-5-hydroxy-7-methoxy-6-oxo-6,11,11a,12-tetrahydro-naphthacen-2-yl ester], for which the binge ethanol consumption entry in data set [1] is “reduction of binge ethanol consumption”.

Turning to `CN(C)c1ccc(O)c2c1CC1CC3C(N(C)C)C(O)=C(C(N)=O)C(=O)C3(O)C(O)=C1C2=O` (stereo not shown) [Minocycline, 4.7-Bis-dimcthylamino-3,10,12,12a-tctrahydroxy-1,11-dioxo-1,4.4a,5,5a,6,11,12 a-octahydro-naphthacene-2-carboxylic acid amide], the “efficacy against AUD traits” value in data set [5] is recorded as “effective”.

For orientation: LogD means the decadic logarithm of the distribution of all forms, ionised or not, between an organic phase and buffer at a given pH. Usually LogP stands for the decadic logarithm of the partition coefficient of the neutral form, usually between octanol and water. As for `CN(C)[C@@H]1C(O)=C(C(N)=O)C(=O)[C@@]2(O)C(O)=C3C(=O)c4c(O)cccc4[C@@](C)(O)[C@H]3[C@H](O)[C@@H]12` [Oxytetracycline], in data set [6], the pH-dependent lipophilicity (LogD) is given as −4.25 and the LogP was −1.5.

Regarding `CC(=O)NC(=O)c1c(OC(C)=O)c2c(c(N(C)C)c1OC(C)=O)CC1Cc3c(N(C)C)ccc(OC(C)=O)c3C(=O)C1=C2OC(C)=O` (stereo not shown) [Penta Acetyl Minocycline, Acetic acid 3,10,12-triacetoxy-2-acetylcarbamoyl-4,7-bis-dimethylamino-11-oxo-5,5a,6,11-tetrahydro-naphthacen-1-yl ester], the binge ethanol consumption result in data set [1] is “reduction of binge ethanol consumption”.

On to `CCCOc1ccc(N(C)C)c2c1C(=O)C1=C(O)C3(O)C(=O)C(C(N)=O)=C(O)C(N(C)C)C3CC1C2` (stereo not shown) [Propyl Ether Minocycline, 4,7-Bis-dimethylamino-3,12,12a-trihydroxy-1,11-dioxo-10-propoxy-1,4,4a,5,5a,6,11,12a-octahydro-naphthacene-2-carboxylic acid amide], for which the binge ethanol consumption result in data set [1] is on record as “reduction of binge ethanol consumption”.

In the case of `CC(=O)NC(=O)c1c(OC(C)=O)c2c(c(N(C)C)c1OC(C)=O)CC1Cc3c(N(C)C)ccc(OC(C)=O)c3C(=O)C1=C2O` (stereo not shown) [Tetra Acetyl Minocycline, Acetic acid 3,10-diacetoxy-2-acetylcarbamoyl-4,7-bis-dimethylamino-12-hydroxy-11-oxo-5,5a,6,11-tetrahydro-naphthacen-1-yl ester], in data set [1], the binge ethanol consumption entry is reported as “reduction of binge ethanol consumption”.

In the case of `CN(C)c1cc(NC(=O)CNC(C)(C)C)c(O)c2c1C[C@H]1C[C@H]3[C@H](N(C)C)C(O)=C(C(N)=O)C(=O)[C@@]3(O)C(O)=C1C2=O` [Tigecycline], the DID consumption result in data set [7] is “reduced DID consumption”. Further, the “DID ethanol consumption / tigecycline efficacy, sterilized vs not” value in data set [8] is “No significant difference”. In addition, the “efficacy against AUD traits” value in data set [5] is on record as “effective”.
